Where a SMILES comes first, the peptide text is derived from it. Bridges are numbered along the chain shown (N, C = ends). [ ]: non-standard residue; d: D form. R8 = C=CCCCCCC[C@@](C)(N)C(=O)O; R5 = C=CCCC[C@@](C)(N)C(=O)O; S5 = C=CCCC[C@](C)(N)C(=O)O
How the values were obtained:
circular dichroism = conditions: 10 mM phosphate; pH 7.5; 25 °C; 50 uM
[1] = biological target: monomeric N protein (N^mono), recombinant N^K170A/R185A (Human respiratory syncytial virus A, UniProt P03418, K170A/R185A); experiment: Fluorescence polarization competition assay: displacement of FAM–P(1–40) from monomeric N; type: binding; conditions: FP competition with FAM–P(1–40) probe
Chain of monomeric N protein (N^mono), recombinant N^K170A/R185A (P03418 whole entry K170A/R185A, looked up): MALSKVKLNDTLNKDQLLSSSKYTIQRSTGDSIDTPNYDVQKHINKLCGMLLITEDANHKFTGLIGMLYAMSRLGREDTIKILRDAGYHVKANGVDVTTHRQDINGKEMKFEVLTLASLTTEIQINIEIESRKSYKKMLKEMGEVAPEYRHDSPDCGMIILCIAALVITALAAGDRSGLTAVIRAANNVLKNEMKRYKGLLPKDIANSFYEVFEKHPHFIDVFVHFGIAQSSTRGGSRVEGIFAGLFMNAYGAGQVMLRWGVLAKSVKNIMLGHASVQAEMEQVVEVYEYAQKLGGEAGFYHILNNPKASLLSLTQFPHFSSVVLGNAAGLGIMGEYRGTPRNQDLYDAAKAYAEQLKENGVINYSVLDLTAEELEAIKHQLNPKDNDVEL

[2] = Circular dichroism spectroscopy, α-helical content; type: physicochemical; conditions: CD, 10 mM phosphate buffer pH 7.5, 50 μM peptide, 25°C, calculated from ellipticity at 222 nm; average of three measurements
Procedure: The α-helical stabilization appeared to be higher for the i, i + 7 staples overall.
The circular dichroism spectra were acquired on a Chirascan spectropolarimeter. The samples were prepared in 10 mM phosphate buffer, pH 7.5, at a peptide concentration of 50 μM. Data were recorded at 25°C by step scan from 180 nm to 260 nm in a 0.5-mm-pathlength quartz cell using 0.2-nm-wavelength increments, a 1-nm bandwidth, and a response time of 1 s. Each spectrum was an average of three measurements and was subtracted from the buffer baseline. The data were converted to per residue molar ellipticity units (θ; in degrees · square centimeters · decimoles^−1 · number of residues^−1) and smoothed using Igor Pro software. Percent helicity was calculated as follows: (100 × CD222)/(C × N × {40,000 × [1 − (2.5/N)]}), where CD222 is the molar ellipticity (θ) at 222 nm (in millidegrees), N is the number of amino acids in the peptide, and C is the peptide molar concentration (in moles per liter).

rHRSV-mCherry = conditions: read-out: EC50 (half-maximal response inhibitory concentration), inhibition of RSV infection; HEp-2 cells, MOI 0.2, peptides added after 2 h infection, mCherry fluorescence at 48 h postinfection; duplicates
HEp-2 cells = experiment: HEp-2 cell viability (CellTiter-Glo luminescent cell viability assay); conditions: peptide alone at 50 μM; duplicates
Procedure: (B) HEp-2 cell viability upon treatment with peptides alone at peptide concentrations of 50, 25, and 12.5 μM. Error bars are standard deviations from duplicates. Data are representative of those from two independent experiments.
Cytotoxicity assays were done with the CellTiter-Glo luminescent cell viability assay (Promega). Each experiment was performed in duplicate and repeated at least twice.

SMILES | helicity (circular dichroism) | Competitive binding to N^mono (in words) [1] | % helicity [2] | EC50 (rHRSV-mCherry) | Toxicity for uninfected HEp-2 cells (cell viability) (HEp-2 cells)
CC[C@H](C)[C@H](NC(=O)[C@H](CO)NC(=O)[C@H](CCC(=O)O)NC(=O)[C@H](CC(C)C)NC(=O)[C@H](Cc1ccccc1)NC(=O)[C@H](CCCCN)NC(=O)[C@]1(C)CCCC=CCCC[C@@](C)(NC(=O)[C@H](CC(N)=O)NC(=O)[C@H](C)NC(=O)[C@H](CC(=O)O)NC(=O)[C@H](CCC(=O)O)NC(C)=O)C(=O)N[C@@H](CCCCN)C(=O)N[C@@H](C)C(=O)N1)C(=O)N[C@@H](CCCCN)C(=O)NCC(=O)N[C@@H](CCCCN)C(=O)N[C@@H](Cc1ccccc1)C(=O)N[C@@H](C)C(=O)N[C@@H](CO)C(N)=O [1a] (Ac-EDAN[R5]KA[S5]KFLESIKGKFAS-NH2; staple 5-8) | 5.5% | detrimental to the binding | 5.5% |  | 
CC(=O)N[C@@H](CCC(=O)O)C(=O)N[C@@H](CC(=O)O)C(=O)N[C@@H](C)C(=O)N[C@@H](CC(N)=O)C(=O)N[C@@H](CC(N)=O)C(=O)N[C@@H](CCCCN)C(=O)N[C@@H](C)C(=O)N[C@H](C(=O)N[C@@H](CCCCN)C(=O)N[C@@H](Cc1ccccc1)C(=O)N[C@]1(C)CCCC=CCCC[C@@](C)(C(=O)N[C@@H](CCCCN)C(=O)NCC(=O)N[C@@H](CCCCN)C(=O)N[C@@H](Cc2ccccc2)C(=O)N[C@@H](C)C(=O)N[C@@H](CO)C(N)=O)NC(=O)[C@H](CO)NC(=O)[C@H](CCC(=O)O)NC1=O)[C@@H](C)O [1d] (Ac-EDANNKATKF[R5]ES[S5]KGKFAS-NH2; staple 11-14) | 24.2% | no competition could be observed | 24.2% |  | 
CC[C@H](C)[C@H](NC(=O)[C@H](CO)NC(=O)[C@H](CCC(=O)O)NC(=O)[C@H](CC(C)C)NC(=O)[C@H](Cc1ccccc1)NC(=O)[C@H](CCCCN)NC(=O)[C@@H](NC(=O)[C@H](C)NC(=O)[C@H](CCCCN)NC(=O)[C@H](CC(N)=O)NC(=O)[C@H](CC(N)=O)NC(=O)[C@H](C)NC(=O)[C@H](CC(=O)O)NC(=O)[C@H](CCC(=O)O)NC(C)=O)[C@@H](C)O)C(=O)N[C@@H](CCCCN)C(=O)NCC(=O)N[C@]1(C)CCCC=CCCC[C@@](C)(C(N)=O)NC(=O)[C@H](C)NC(=O)[C@H](Cc2ccccc2)NC1=O [1g] (Ac-EDANNKATKFLESIKG[R5]FA[S5]-NH2; staple 17-20) | 25.5% | detrimental to the binding | 25.5% |  | 
CC(=O)N[C@@H](CCC(=O)O)C(=O)N[C@@H](CC(=O)O)C(=O)N[C@@H](C)C(=O)N[C@@H](CC(N)=O)C(=O)N[C@@H](CC(N)=O)C(=O)N[C@@H](CCCCN)C(=O)N[C@@H](C)C(=O)N[C@H](C(=O)N[C@@H](CCCCN)C(=O)N[C@@]1(C)CCCC=CCCC[C@@](C)(C(=O)N[C@@H](CCCCN)C(=O)NCC(=O)N[C@@H](CCCCN)C(=O)N[C@@H](Cc2ccccc2)C(=O)N[C@@H](C)C(=O)N[C@@H](CO)C(N)=O)NC(=O)[C@H](CO)NC(=O)[C@H](CCC(=O)O)NC(=O)[C@H](CC(C)C)NC1=O)[C@@H](C)O [2d] (Ac-EDANNKATK[S5]LES[S5]KGKFAS-NH2; staple 10-14) | 10.1% | no competition could be observed | 10.1% |  | 
CC[C@H](C)[C@H](NC(=O)[C@H](CO)NC(=O)[C@]1(C)CCCC=CCCCCCC[C@@](C)(NC(=O)[C@H](CC(N)=O)NC(=O)[C@H](C)NC(=O)[C@H](CC(=O)O)NC(=O)[C@H](CCC(=O)O)NC(=O)CNC(=O)[C@H](Cc2c[nH]cn2)NC(=O)[C@H](Cc2ccccc2)NC(=O)[C@H](CCC(=O)O)NC(C)=O)C(=O)N[C@@H](CCCCN)C(=O)N[C@@H](C)C(=O)N[C@@H]([C@@H](C)O)C(=O)N[C@@H](CCCCN)C(=O)N[C@@H](Cc2ccccc2)C(=O)N[C@@H](CC(C)C)C(=O)N1)C(=O)N[C@@H](CCCCN)C(=O)N[C@]1(C)CCCC=CCCC[C@@](C)(C(=O)N[C@@H](CO)C(N)=O)NC(=O)[C@H](Cc2ccccc2)NC(=O)[C@H](CCCCN)NC1=O [3a1f] (Ac-EFHGEDAN[R8]KATKFL[S5]SIK[R5]KF[S5]S-NH2; staple 9-16, 20-23) |  |  | 37.7% | 25.3 ± 17.9 µM | 
CC[C@H](C)[C@H](NC(=O)[C@]1(C)CCCC=CCCCCCC[C@@](C)(NC(=O)[C@H](CC(N)=O)NC(=O)[C@H](CC(N)=O)NC(=O)[C@H](C)NC(=O)[C@H](CC(=O)O)NC(=O)[C@H](CCC(=O)O)NC(=O)CNC(=O)[C@H](Cc2c[nH]cn2)NC(=O)[C@H](Cc2ccccc2)NC(=O)[C@H](CCC(=O)O)NC(C)=O)C(=O)N[C@@H](C)C(=O)N[C@@H]([C@@H](C)O)C(=O)N[C@@H](CCCCN)C(=O)N[C@@H](Cc2ccccc2)C(=O)N[C@@H](CC(C)C)C(=O)N[C@@H](CCC(=O)O)C(=O)N1)C(=O)N[C@@H](CCCCN)C(=O)N[C@]1(C)CCCC=CCCC[C@@](C)(C(=O)N[C@@H](CO)C(N)=O)NC(=O)[C@H](Cc2ccccc2)NC(=O)[C@H](CCCCN)NC1=O [3b1f] (Ac-EFHGEDANN[R8]ATKFLE[S5]IK[R5]KF[S5]S-NH2; staple 10-17, 20-23) |  |  | 46.6% | > 100 µM | 
CC[C@H](C)[C@H](NC(=O)[C@]1(C)CCCC=CCCCCCC[C@@](C)(NC(=O)[C@H](CC(N)=O)NC(=O)[C@H](CC(N)=O)NC(=O)[C@H](C)NC(=O)[C@]2(C)CCCC=CCCC[C@@](C)(NC(=O)[C@H](Cc3ccccc3)NC(=O)[C@H](CCC(=O)O)NC(C)=O)C(=O)NCC(=O)N[C@@H](CCC(=O)O)C(=O)N2)C(=O)N[C@@H](C)C(=O)N[C@@H]([C@@H](C)O)C(=O)N[C@@H](CCCCN)C(=O)N[C@@H](Cc2ccccc2)C(=O)N[C@@H](CC(C)C)C(=O)N[C@@H](CCC(=O)O)C(=O)N1)C(=O)N[C@@H](CCCCN)C(=O)NCC(=O)N[C@@H](CCCCN)C(=O)N[C@@H](Cc1ccccc1)C(=O)N[C@@H](C)C(=O)N[C@@H](CO)C(N)=O [4a3b] (Ac-EF[R5]GE[S5]ANN[R8]ATKFLE[S5]IKGKFAS-NH2; staple 3-6, 10-17) |  | inactive | 73.2% | 14.6 ± 13.9 µM | 
CC[C@H](C)[C@H](NC(=O)[C@]1(C)CCCC=CCCCCCC[C@@](C)(NC(=O)[C@H](CC(N)=O)NC(=O)[C@H](CC(N)=O)NC(=O)[C@H](C)NC(=O)[C@]2(C)CCCC=CCCC[C@](C)(NC(=O)[C@H](CCC(=O)O)NC(C)=O)C(=O)N[C@@H](Cc3c[nH]cn3)C(=O)NCC(=O)N[C@@H](CCC(=O)O)C(=O)N2)C(=O)N[C@@H](C)C(=O)N[C@@H]([C@@H](C)O)C(=O)N[C@@H](CCCCN)C(=O)N[C@@H](Cc2ccccc2)C(=O)N[C@@H](CC(C)C)C(=O)N[C@@H](CCC(=O)O)C(=O)N1)C(=O)N[C@@H](CCCCN)C(=O)NCC(=O)N[C@@H](CCCCN)C(=O)N[C@@H](Cc1ccccc1)C(=O)N[C@@H](C)C(=O)N[C@@H](CO)C(N)=O [4c3b] (Ac-E[S5]HGE[S5]ANN[R8]ATKFLE[S5]IKGKFAS-NH2; staple 2-6, 10-17) |  |  | 34.2% | 39.9 ± 4.5 µM | 
CC[C@H](C)[C@H](NC(=O)[C@]1(C)CCCC=CCCCCCC[C@@](C)(NC(=O)[C@H](CCC(=O)O)NC(=O)[C@H](CC(N)=O)NC(=O)[C@H](C)NC(=O)[C@]2(C)CCCC=CCCC[C@@](C)(NC(=O)[C@H](Cc3ccccc3)NC(=O)[C@H](CCC(=O)O)NC(C)=O)C(=O)NCC(=O)N[C@@H](CCC(=O)O)C(=O)N2)C(=O)N[C@@H](C)C(=O)N[C@@H]([C@@H](C)O)C(=O)N[C@@H](CCCCN)C(=O)N[C@@H](Cc2ccccc2)C(=O)N[C@@H](CC(C)C)C(=O)N[C@@H](C)C(=O)N1)C(=O)N[C@@H](CCCCN)C(=O)NCC(=O)N[C@@H](CCCCN)C(=O)N[C@@H](Cc1ccccc1)C(=O)N[C@@H](C)C(=O)N[C@@H](CO)C(N)=O [5b] (Ac-EF[R5]GE[S5]ANE[R8]ATKFLA[S5]IKGKFAS-NH2; staple 3-6, 10-17) |  |  | >100% | 16.9 ± 5.1 µM | some toxicity
CC[C@H](C)[C@H](NC(=O)[C@]1(C)CCCC=CCCCCCC[C@@](C)(NC(=O)[C@H](CC(N)=O)NC(=O)[C@H](CC(N)=O)NC(=O)[C@H](C)NC(=O)[C@]2(C)CCCC=CCCC[C@@](C)(NC(=O)[C@H](Cc3ccccc3)NC(=O)[C@H](CCC(=O)O)NC(C)=O)C(=O)NCC(=O)N[C@@H](CCC(=O)O)C(=O)N2)C(=O)N[C@@H](C)C(=O)N[C@@H]([C@@H](C)O)C(=O)N[C@@H](CCC(=O)O)C(=O)N[C@@H](Cc2ccccc2)C(=O)N[C@@H](CC(C)C)C(=O)N[C@@H](CCCCN)C(=O)N1)C(=O)N[C@@H](CCCCN)C(=O)NCC(=O)N[C@@H](CCCCN)C(=O)N[C@@H](Cc1ccccc1)C(=O)N[C@@H](C)C(=O)N[C@@H](CO)C(N)=O [5c] (Ac-EF[R5]GE[S5]ANN[R8]ATEFLK[S5]IKGKFAS-NH2; staple 3-6, 10-17) |  |  | 79.7% | 18.5 ± 10.6 µM | no toxicity

Reference: PMC7508628, “Targeting the Respiratory Syncytial Virus N^0-P Complex with Constrained α-Helical Peptides in Cells and Mice” (Antimicrobial Agents and Chemotherapy, 2020)
